Article PMC5713474, “Green route to synthesis of valuable chemical 6-hydroxynicotine from nicotine in tobacco wastes using genetically engineered Agrobacterium tumefaciens S33” (Biotechnology for Biofuels, 2017)

Test system: T1, Hno (6-hydroxynicotine oxidase), recombinant His-tagged
T1 construct: N-terminal His tag (pETDuet-1), E. coli BL21 (DE3); FAD-containing; about 50 kDa on SDS-PAGE
Assay: UV-visible spectrophotometry at […] nm (6-hydroxypseudooxynicotine formation)
Assay type: biochemical, Agrobacterium tumefaciens
Settings: 37 °C, pH 9.2, 100 mM glycine-NaOH buffer; O2 as electron acceptor; read-out: apparent K m

CN1CCC[C@H]1c1ccc(O)nc1 [6-hydroxynicotine]
Km: 67 ± 1 µM
